Assay results taken from patent US9486457B2, “Use of cinnabarinic acid as a modulator of immune responses in autoimmune disorders” (The Regents of the University of California, priority 2010, dated 2016).
“Also recorded” adds a separate entry of the source.

Tests used:
[1] = tested on: experimental allergic encephalomyelitis (EAE); conditions: literature reports (refs 15, 25 as cited in text); cited from earlier work
[2] = tested on: stimulated human CD4+ T cells; conditions: literature (ref 19); cited from earlier work
[3] = tested on: stimulated human CD4+ T cells; assay: IL-22 expression by CD4+ T cells in stimulated human PBMCs / T cells; type: cell-based; conditions: for IL-22 expression by CD4+ T cells (Th22 differentiation): stimulated human PBMCs / T cells, 100 μM for 3-HKyn and 3-HAA in FIG. 6A
Text: FIG. 6: 3-HKyn and 3-HAA promote IL-22 expression by stimulated human CD4+ T cells. […] (C) IL-22 induction by 3-HAA is blocked by inhibition of the AhR pathway.
This is highlighted by the observation that AHR−/− mice retain the ability to generate some Th17 cells, but are incapable of generating cells that express IL-22 (16-18). […] To screen for the ability of tryptophan metabolites generated downstream of IDO to activate the AHR, we stimulated human T cells in vitro in the presence of different tryptophan metabolites (3-Hydroxykynurenine (3-HKA), 3-Hydroxyanthranilic Acid (3-HAA), Picolinic Acid (PA), and Quinolinic Acid (QA)) to assess whether any promoted the expansion of CD4+ T cells secreting IL-22. […] To determine whether the induction of IL-22 within this population was dependent upon AHR activation, we next stimulated human T cells in the presence or absence of a potent AHR antagonist (CH-223191) and monitored the induction of IL-22.

[4] = target: T1, AHR (Mus musculus, UniProt P30561); assay: AHR-responsive (dioxin responsive element) GFP reporter assay in H1G1 mouse hepatoma cells; type: cell-based; conditions: for AHR agonist activity (activation of AHR-responsive reporter): agonist mode; for AHR antagonist activity (block of AHR activation by TCDD): antagonist mode, co-treatment with TCDD, H1G1 cells
T1 construct: murine hepatoma cell line stably transfected with an AhR-responsive (AhR-eGFP) reporter construct; endogenous in cells
T1 sequence (P30561 10-848): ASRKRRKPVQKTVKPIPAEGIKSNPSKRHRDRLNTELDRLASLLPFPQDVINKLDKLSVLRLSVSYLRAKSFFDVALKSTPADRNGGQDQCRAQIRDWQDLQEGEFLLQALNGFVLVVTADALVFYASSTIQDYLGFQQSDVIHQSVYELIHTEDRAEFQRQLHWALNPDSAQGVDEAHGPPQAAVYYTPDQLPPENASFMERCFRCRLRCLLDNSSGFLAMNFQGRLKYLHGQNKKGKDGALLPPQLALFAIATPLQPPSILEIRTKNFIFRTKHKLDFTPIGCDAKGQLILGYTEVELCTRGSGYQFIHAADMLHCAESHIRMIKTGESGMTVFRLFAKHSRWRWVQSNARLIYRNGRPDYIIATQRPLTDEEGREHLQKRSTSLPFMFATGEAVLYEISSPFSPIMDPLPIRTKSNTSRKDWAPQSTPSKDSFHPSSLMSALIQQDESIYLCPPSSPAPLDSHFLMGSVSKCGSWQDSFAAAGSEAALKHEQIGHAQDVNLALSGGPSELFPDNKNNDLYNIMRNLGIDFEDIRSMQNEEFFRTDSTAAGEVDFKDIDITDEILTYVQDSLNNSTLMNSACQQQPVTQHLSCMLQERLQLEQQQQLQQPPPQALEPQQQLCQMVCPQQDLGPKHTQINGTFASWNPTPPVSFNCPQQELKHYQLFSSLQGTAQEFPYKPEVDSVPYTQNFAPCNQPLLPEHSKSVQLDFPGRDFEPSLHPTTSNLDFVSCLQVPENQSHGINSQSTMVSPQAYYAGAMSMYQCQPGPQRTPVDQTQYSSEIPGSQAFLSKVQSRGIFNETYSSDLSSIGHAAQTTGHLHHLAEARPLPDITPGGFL
Text: (§1) We performed a precursory screen of all tryptophan metabolites including both 3-HKA and 3-HAA to bind to and act as agonists or antagonists of the AHR using two separate assays. First we examined the ability of 3-HKyn, 3-HAA, and PA to displace TCDD binding to the human AHR protein in vitro (20). […] We also measured AHR activation using a mouse hepatoma cell line (H1G1) that stably expresses a green fluorescent protein (GFP) reporter construct downstream of a series of dioxin responsive elements (FIG. 7A) (21).

[5] = target: T2, human AHR protein (Homo sapiens, UniProt P35869); assay: Displacement of TCDD binding to in vitro translated human AHR protein; conditions: cell-free
T2 sequence (P35869 11-848): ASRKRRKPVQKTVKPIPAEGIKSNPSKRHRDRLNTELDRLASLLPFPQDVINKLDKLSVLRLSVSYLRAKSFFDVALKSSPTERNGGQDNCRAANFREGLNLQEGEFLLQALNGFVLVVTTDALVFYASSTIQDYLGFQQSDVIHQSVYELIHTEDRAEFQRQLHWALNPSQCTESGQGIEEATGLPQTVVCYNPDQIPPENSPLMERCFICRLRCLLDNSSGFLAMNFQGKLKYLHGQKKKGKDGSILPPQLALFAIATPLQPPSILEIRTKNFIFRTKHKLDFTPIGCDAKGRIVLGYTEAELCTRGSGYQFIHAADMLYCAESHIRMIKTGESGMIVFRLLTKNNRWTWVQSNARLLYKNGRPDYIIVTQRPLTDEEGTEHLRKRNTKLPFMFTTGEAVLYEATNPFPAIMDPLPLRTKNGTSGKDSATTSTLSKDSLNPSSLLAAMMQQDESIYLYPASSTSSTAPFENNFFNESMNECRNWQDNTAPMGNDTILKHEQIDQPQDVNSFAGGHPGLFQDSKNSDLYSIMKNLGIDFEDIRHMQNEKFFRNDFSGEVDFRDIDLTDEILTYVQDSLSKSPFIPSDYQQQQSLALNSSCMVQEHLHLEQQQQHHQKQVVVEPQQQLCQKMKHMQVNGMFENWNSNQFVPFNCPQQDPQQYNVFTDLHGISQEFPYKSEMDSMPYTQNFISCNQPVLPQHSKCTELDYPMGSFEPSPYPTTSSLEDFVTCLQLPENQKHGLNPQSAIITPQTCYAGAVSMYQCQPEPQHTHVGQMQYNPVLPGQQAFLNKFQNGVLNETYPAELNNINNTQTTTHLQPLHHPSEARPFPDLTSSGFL
Text: as §1

[6] = tested on: human naïve CD4+ T cells; assay: IL-22 induction in cultured human naïve CD4+ T cells stimulated with anti-CD3/anti-CD28 under Th17 polarizing conditions; type: cell-based; conditions: CA 25 μM in FIG. 8D
Text: This is AHR dependent as inclusion of an AHR antagonist fully abrogated effect.
FIG. 8: CA is an endogenous AhR agonist generated by oxidative dimerization of 3-HAA. (A) An alternative pathway of 3-HAA metabolism leads to the generation of CA either by non-enzymatic (oxidation) or enzymatic (laccase, ceruloplasmin) processes. CA is structurally similar to the synthetic AhR ligand TCDD. […] Data are representative of three similar experiments.

[7] = tested on: naïve (CD45RA+CCR7+CD95−CD25−) CD4+ T cells; assay: Foxp3 induction in stimulated naïve CD4+ T cells; type: cell-based, human
Text: FIG. 9: The synthetic 3-HAA analogue 3,4 DAA (Tranilast) is an AhR antagonist and promotes the induction of Foxp3 by stimulated CD4+ T cells. (A) 3,4 DAA shares some structural similarities to 3-HAA (highlighted region).
Therefore we asked whether T cells treated with 3,4 DAA might be prompted to differentiate into Treg cells through upregulation of the transcription factor Foxp3 (26).

With `O=Cc1c2c(cc3c1=Nc1ccccc1-3)=Nc1ccccc1-2` [FICZ, 6-formylindolo[3,2-b]carbazole] as the molecule, how does the “effect on EAE as previously reported” value [1] read?
The value was “increased disease severity”.

And the “frequency of CD4+ T cells that produce IL-22 (Th22), as previously reported” value [2]?
Its value is “promoted a significant increase in the frequency of CD4+ T cells that produced IL-22”.

With `Nc1c(O)cccc1C(=O)CC(N)C(=O)O` (stereo not shown) [3-HKyn, 3-Hydroxykynurenine] as the molecule, how does the “IL-22 expression by CD4+ T cells (Th22 differentiation)” value [3] read?
The value was “leads to the expansion of a population of cells expression the cytokine IL-22”.

What about the “IL-22 expression by CD4+ T cells (Th22 differentiation)” value ([3]; listed as 3-HKA) of the same molecule?
Its value is “able to promote the differentiation of Th22 cells”.

And the “AHR agonist activity (activation of AHR-responsive reporter)” value (from here on “AHR agonist activity”) [4]?
The value was “none of the other metabolites (3-HKyn, PA, QA) were found to have any activity as agonists or antagonists”.

And the “AHR antagonist activity (block of AHR activation by TCDD)” value (“AHR antagonist activity” below) [4]?
The value was “none of the other metabolites (3-HKyn, PA, QA) were found to have any activity as agonists or antagonists”.

What about the “displacement / inhibition of TCDD binding to human AHR” value [5] of the same molecule?
The value was “unable to measure any significant displacement”.

With `Nc1c(O)cccc1C(=O)O` [3-HAA, 3-Hydroxyanthranilic Acid] as the molecule, how does the “expansion of Th22 cells” value ([3]; different donors) read?
Its value is ≥ 2 fold.

And the “IL-22 expression by CD4+ T cells (Th22 differentiation)” value [3]?
Its value is “able to promote the differentiation of Th22 cells; also recorded: leads to the expansion of a population of cells expression the cytokine IL-22; also recorded: promotes IL-22 expression in dose-dependent manner”.

And the “AHR agonist activity” value [4]?
The value was “modest increase in AHR activity using 3-HAA as an agonist, this failed to reach significance; also recorded: minimal activation of the AhR; also recorded: no activity in short-term assays”.

And the IL-22 induction [6]?
The IL-22 induction was “only had minimal effects”.

And the “displacement / inhibition of TCDD binding to human AHR” value [5]?
Its value is “modest binding of 3-HAA only at very high concentrations”.

What about the “Foxp3 expression (frequency of CD4+Foxp3+ T cells)” value ([7]; stimulated naïve CD4+ T cells in vitro) of the same molecule?
Its value is “promotes Foxp3 upregulation but to a lesser extent”.

With `Cc1ccccc1N=Nc1ccc(NC(=O)c2ccnn2C)c(C)c1` [CH-223191] as the molecule, how does the “block of IL-22 induction by 3-HAA” value ([3]; AHR antagonist added with 3-HAA) read?
The value was “significantly abolish IL-22 induction by 3-HAA”.

What about the “AHR antagonist activity” value [4] of the same molecule?
The value was “potent antagonist”.

What about the “AHR antagonist activity” value ([4]; listed as CH223191) of the same molecule?
The value was “positive control”.

With `NCCc1c[nH]c2ccccc12` [Tryptamine, tryptamine] as the molecule, how does the “AHR agonist activity” value [4] read?
Its value is “positive control”.

Which “effect of HAAO inhibition on the ability of 3-HAA to induce IL-22” value ([3]; in the presence of different concentrations of 3-HAA) does the source give for `Nc1c(C(=O)O)ccc(F)c1O` [4-F-3-HAA, 4-fluoro-3-hydroxythranilic acid] here?
The value was “stark increase in the ability of 3-HAA to induce IL-22”.

With `Clc1cc2c(cc1Cl)Oc1cc(Cl)c(Cl)cc1O2` [TCDD, 2,3,7,8-tetrachlorodibenzodioxin] as the molecule, how does the “effect on EAE as previously reported” value [1] read?
The value was “protective”.

With `O=C(O)c1cccnc1C(=O)O` [QA, Quinolinic Acid] as the molecule, how does the “AHR agonist activity” value [4] read?
Its value is “none of the other metabolites (3-HKyn, PA, QA) were found to have any activity as agonists or antagonists”.

And the “AHR antagonist activity” value [4]?
Its value is “none of the other metabolites (3-HKyn, PA, QA) were found to have any activity as agonists or antagonists”.

What does the source list for `O=C(O)c1ccccn1` [PA, Picolinic Acid]?
AHR agonist activity (activation of AHR-responsive reporter) [4]: none of the other metabolites (3-HKyn, PA, QA) were found to have any activity as agonists or antagonists; AHR antagonist activity (block of AHR activation by TCDD) [4]: none of the other metabolites (3-HKyn, PA, QA) were found to have any activity as agonists or antagonists; displacement / inhibition of TCDD binding to human AHR [5]: unable to measure any significant displacement

For `NC(=O)c1ccc(-c2nc(-c3ccc4c(c3)OCO4)c(-c3ccccn3)[nH]2)cc1` [SB-431542], which “reversal of Foxp3 upregulation by 3,4 DAA and 3-HAA” value ([7]; TGFβ signaling inhibitor added) is on record?
The value was “reversed the ability of 3,4 DAA and 3-HAA to upregulate Foxp3”.
